We go through 2 compounds from PubChem BioAssay AID624330 (Southern Research Specialized Biocontainment Screening …, 2012).

Molecules are shown by their SMILES.

This assay has as its target Rac GTPase-activating protein 1 (Homo sapiens) (UniProt Q9H0H5). The assay is described as follows: MgcRacGAP GTPase-activating activity inhibitors, confirmation, biochemical, ADP Hunter fluorescence, primary and confirmatory (AID 624330).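 Further: fluorescence reports GDP produced by GAP-driven GTP hydrolysis.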 The note with it: MgcRacGAP-stimulated Rac1 GTP hydrolysis, GST-tagged Rac1 F28L mutant substrate.

Sequence of Rac GTPase-activating protein 1 (Homo sapiens) (Q9H0H5 whole entry, looked up): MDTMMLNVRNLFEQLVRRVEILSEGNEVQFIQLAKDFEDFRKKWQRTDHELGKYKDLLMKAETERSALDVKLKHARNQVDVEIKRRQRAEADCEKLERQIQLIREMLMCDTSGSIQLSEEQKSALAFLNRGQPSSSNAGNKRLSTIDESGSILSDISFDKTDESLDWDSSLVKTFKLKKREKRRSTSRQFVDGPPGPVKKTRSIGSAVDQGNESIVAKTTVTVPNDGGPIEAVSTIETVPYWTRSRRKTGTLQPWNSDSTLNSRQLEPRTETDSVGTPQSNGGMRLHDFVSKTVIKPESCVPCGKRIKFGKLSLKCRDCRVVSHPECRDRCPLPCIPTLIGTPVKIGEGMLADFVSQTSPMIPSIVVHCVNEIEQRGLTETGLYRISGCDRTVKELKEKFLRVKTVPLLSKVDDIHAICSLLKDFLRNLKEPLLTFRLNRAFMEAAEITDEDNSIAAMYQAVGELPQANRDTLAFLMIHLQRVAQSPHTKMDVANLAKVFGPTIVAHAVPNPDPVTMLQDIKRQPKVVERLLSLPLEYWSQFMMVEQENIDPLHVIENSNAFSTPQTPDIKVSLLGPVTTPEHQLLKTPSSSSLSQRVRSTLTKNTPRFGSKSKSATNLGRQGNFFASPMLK

In the case of `C#CCOCCOCCOCCNc1nc(N2CCN(C(=O)CCCCCCCCCCNC(=O)[C@@H](CCSC)n3cc(CCO)nn3)CC2)nc(N2CCN(C(=O)CCCCCCCCCCNC(=O)[C@H](CO)n3cc(CCCCCN)nn3)CC2)n1`, the IC50 (usually the concentration needed to halve the response being measured) was 49.6 µM. The same measure for `C#CCOCCOCCOCCNc1nc(N2CCN(C(=O)[C@H](CCCCN)n3cc([C@@H](N)C(C)CC)nn3)CC2)nc(N2CCN(C(=O)[C@H](Cc3cc4ccccc4[nH]3)n3cc([C@@H](N)C(C)CC)nn3)CC2)n1` (some centres not stated): 67.9 µM.
